What was measured:
Settings in all cases: incubation time: 72 h
CAL-85-1 [1] = assay: normalised viability (% of control), CellTiter-Blue; higher = more viable cells (100 = DMSO, 0 = benzethonium chloride kill control)
Experimental: (§1)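 DSRT, CellTiter-Blue viability, 72 h incubation. Signal is normalised to DMSO and benzethonium chloride controls. Value is the normalised response at dose 1.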

MDA-MB-231 [2] = assay: as above
Experimental: as §1

HCC1143 [3] = assay: as above
Experimental: as §1

BT-549 [4] = assay: as above
Experimental: as §1

CAL-120 [5] = assay: as above
Experimental: as §1

HCC1599 [6] = assay: as above
Experimental: as §1

HDQ-P1 [7] = assay: as above
Experimental: as §1

DU-4475 [8] = assay: as above
Experimental: as §1

MDA-MB-468 [9] = assay: as above
Experimental: as §1

HCC1937 [10] = assay: as above
Experimental: as §1

CAL-51 [11] = assay: as above
Experimental: as §1

MFM-223 [12] = assay: as above
Experimental: as §1

SK-BR-3 [13] = assay: as above
Experimental: as §1

MDA-MB-453 [14] = assay: as above
Experimental: as §1

MDA-MB-436 [15] = assay: as above
Experimental: as §1

CAL-148 [16] = assay: as above
Experimental: as §1

BT-474 [17] = assay: as above
Experimental: as §1

Hs578T [18] = assay: as above
Experimental: as §1

CAL-85-1 [19] = assay: normalised response (% of control), CellTiter-Glo; higher = more viable cells (100 = DMSO, 0 = benzethonium chloride kill control)
Summary of the method: (§2)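 The table gives the normalised signal for a single concentration in each entry. Breast cancer cell lines were seeded (20 µl suspension) into 384-well plates holding compound at 5 concentrations in 10-fold steps over a compound-specific 10,000-fold range and incubated 72 h, then read for CellTox Green fluorescence (485/520 nm) and CellTiter-Glo luminescence. Normalisation on each plate used 0.1 % DMSO (100) and a positive kill control (0).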

MDA-MB-231 [20] = assay: as above
Summary of the method: as §2

HCC1143 [21] = assay: as above
Summary of the method: as §2

BT-549 [22] = assay: as above
Summary of the method: as §2

CAL-120 [23] = assay: as above
Summary of the method: as §2

HCC1599 [24] = assay: as above
Summary of the method: as §2

HDQ-P1 [25] = assay: as above
Summary of the method: as §2

DU-4475 [26] = assay: as above
Summary of the method: as §2

MDA-MB-468 [27] = assay: as above
Summary of the method: as §2

HCC1937 [28] = assay: as above
Summary of the method: as §2

CAL-51 [29] = assay: as above
Summary of the method: as §2

MFM-223 [30] = assay: as above
Summary of the method: as §2

SK-BR-3 [31] = assay: as above
Summary of the method: as §2

MDA-MB-453 [32] = assay: as above
Summary of the method: as §2

MDA-MB-436 [33] = assay: as above
Summary of the method: as §2

MCF-10A = assay: as above
Summary of the method: as §2

CAL-148 [34] = assay: as above
Summary of the method: as §2

BT-474 [35] = assay: as above
Summary of the method: as §2

Hs578T [36] = assay: as above
Summary of the method: as §2

## Cc1cc(Nc2cc(CN3CCOCC3)c3nc(C)c(Cc4ccc(Cl)cc4F)n3n2)n[nH]1 (1 nM)
CAL-85-1 [1]
  normalised viability: 82.1%
MDA-MB-231 [2]
  normalised viability: 89.5%
HCC1143 [3]
  normalised viability: 88.6%
BT-549 [4]
  normalised viability: 97.8%
CAL-120 [5]
  normalised viability: 86.9%
HCC1599 [6]
  normalised viability: 110%
HDQ-P1 [7]
  normalised viability: 65.2%
DU-4475 [8]
  normalised viability: 119%
MDA-MB-468 [9]
  normalised viability: 103%
HCC1937 [10]
  normalised viability: 85.9%
CAL-51 [11]
  normalised viability: 98%
MFM-223 [12]
  normalised viability: 93.8%
SK-BR-3 [13]
  normalised viability: 104%
MDA-MB-453 [14]
  normalised viability: 85.3%
MDA-MB-436 [15]
  normalised viability: 87.7%
CAL-148 [16]
  normalised viability: 95.6%
BT-474 [17]
  normalised viability: 92.4%
Hs578T [18]
  normalised viability: 107%

## N#Cc1ccc(COC[C@H]2O[C@@H](n3c(NCc4ccc(Cl)c(Cl)c4)nc4c(N)ncnc43)[C@H](O)[C@@H]2O)cc1 (1 nM)
CAL-85-1 [1]
  normalised viability: 98.4%
MDA-MB-231 [2]
  normalised viability: 102%
HCC1143 [3]
  normalised viability: 99.9%
BT-549 [4]
  normalised viability: 105%
CAL-120 [5]
  normalised viability: 101%
HCC1599 [6]
  normalised viability: 109%
HDQ-P1 [7]
  normalised viability: 118%
DU-4475 [8]
  normalised viability: 111%
MDA-MB-468 [9]
  normalised viability: 95.5%
HCC1937 [10]
  normalised viability: 84.1%
CAL-51 [11]
  normalised viability: 111%
MFM-223 [12]
  normalised viability: 92.5%
SK-BR-3 [13]
  normalised viability: 91.4%
MDA-MB-453 [14]
  normalised viability: 110%
MDA-MB-436 [15]
  normalised viability: 110%
CAL-148 [16]
  normalised viability: 111%
BT-474 [17]
  normalised viability: 116%
Hs578T [18]
  normalised viability: 92.8%
CAL-85-1 [19]
  normalised response: 104%
MDA-MB-231 [20]
  normalised response: 107%
HCC1143 [21]
  normalised response: 108%
BT-549 [22]
  normalised response: 99.8%
CAL-120 [23]
  normalised response: 108%
HCC1599 [24]
  normalised response: 110%
HDQ-P1 [25]
  normalised response: 108%
DU-4475 [26]
  normalised response: 99.1%
MDA-MB-468 [27]
  normalised response: 107%
HCC1937 [28]
  normalised response: 103%
CAL-51 [29]
  normalised response: 78.2%
MFM-223 [30]
  normalised response: 107%
SK-BR-3 [31]
  normalised response: 109%
MDA-MB-453 [32]
  normalised response: 112%
MDA-MB-436 [33]
  normalised response: 104%
MCF-10A
  normalised response: 112%
CAL-148 [34]
  normalised response: 110%
BT-474 [35]
  normalised response: 109%
Hs578T [36]
  normalised response: 101%

— the supplement of paper PMC4862054
